# Source: paper PMC9228955, “Synthesis, Physicochemical, Labeling and In Vivo Characterization of ^44Sc-Labeled DO3AM-NI as a Hypoxia-Sensitive PET Probe” (Pharmaceuticals, 2022)
# Key:
# [1] = Octanol/water partition coefficient (logP) of labeled complexes; type: physicochemical; settings: 1-octanol/water, triplicates
# Experimental: (§1) Subsequently, the octanol/water partition coefficient (logP) of the labeled complexes was determined to be −3.89 for [^68Ga]Ga(DO3AM-NI) and −2.59 for [^44Sc]Sc(DO3AM-NI). […] To assess the labeled compounds’ stability, the chelates were mixed with the solution of mouse plasma, Na2H2EDTA and oxalic acid, respectively. Aliquots were then taken at different time points (0, 60, 120 and 240 min) and injected into the radio-HPLC column, and the chromatograms were analyzed. After 240 min, the RCP of the samples was above 93% in all three cases.
# A 10 µL volume of [^68Ga]Ga(DO3AM-NI) and [^44Sc]Sc(DO3AM-NI) solution (~5 MBq) was mixed with 500 µL of 1-octanol and 490 µL of water in an Eppendorf vial, respectively. The mixture was shaken with a vortex shaker (600 rpm) for 10 min and centrifuged (6000 rpm) for 5 min. Then, 100 µL from the octanol phase and 1 μL from the aqueous phase were pipetted into vials, and the aqueous aliquot was diluted to 100 µL with water in order to minimize the effects of sample geometry and the high difference of activity concentrations in the two solvents. The radioactivity of the fractions was determined with a gamma counter. The measurements were performed in triplicates for both labeled compounds.
# [2] = Stability of labeled complexes in mouse plasma, Na2H2EDTA and oxalic acid by radio-HPLC; type: in vitro ADME
# Experimental: as §1
# A 10 µL volume of [^68Ga]Ga(DO3AM-NI) and [^44Sc]Sc(DO3AM-NI) solution was added to the solution of 90 µL of mouse plasma, Na2H2EDTA (0.01 M) and oxalic acid (0.01 M), respectively. Samples were analyzed by radio-HPLC at the beginning and after 60, 120 and 240 min. The analytical conditions were the same as detailed for the quality control of the labeled compound.
# [3] = Ex vivo biodistribution in healthy control SCID mice; set-up: species or system CB17 SCID mice; settings: mean ± SD
# Experimental: Ex vivo biodistribution studies were carried out 90 min and 240 min after intravenous injection of ^44Sc- or ^68Ga-labeled DO3AM-NI, and the accumulated activities of the organs and tissues were determined using a gamma counter. By the quantitative analysis of the ex vivo data, significant differences were found between the %ID/g values when ^44Sc- and ^68Ga-labeled DO3AM-NI accumulations were compared. […] In contrast, e.g., [^18F]fluorine- [28], [^131I]iodine- [29], [^99mTc]technetium- [30] and [^64Cu]copper-labeled nitroimidazole-based probes, due to their chemical properties, were mainly metabolized via the liver, and the large abdominal accumulation impaired the evaluation of abdominal tumors in the PET images. The ^44Sc- and ^68Ga-labeled nitroimidazole derivatives had more favorable properties in terms of the reporting and evaluation of PET images and due to their rapid elimination through the urinary system.
# (§2) For the determination of ex vivo biodistribution of the radiotracers, control and KB tumor-bearing mice were injected intravenously with 8.42 ± 0.38 MBq of ^68Ga- or ^44Sc-labeled DO3AM-NI via the tail vein. Mice were euthanized with 5% isoflurane 90 min or 4 h after intravenous radiotracer injection. Three tissue samples were taken from the selected organs, and their weight and radioactivity were measured with a calibrated gamma counter (Perkin-Elmer Packard Cobra, Waltham, MA, USA). The radiotracer uptake was expressed as %ID/g tissue.
# KB tumors [4] = experiment: In vivo PET/MRI imaging of KB tumor-bearing mice, quantitative SUV analysis; set-up: species or system CB17 SCID mice; settings: 240 min after injection
# Experimental: The tumor-specific accumulation of [^44Sc]Sc(DO3AM-NI) and [^68Ga]Ga(DO3AM-NI) was investigated by PET/MRI imaging 90 and 240 min after radiotracer injection using KB tumor-bearing mice. The subcutaneously growing KB tumors were clearly visualized using [^44Sc]Sc(DO3AM-NI) 90 and 240 min post injection with relatively higher SUVmean and SUVmax values (SUVmean: 1.46 ± 0.32 and SUVmax: 2.35 ± 0.47 at 90 min and SUVmean: 0.67 ± 0.03 and SUVmax: 1.55 ± 0.28 at 240 min). Lower accumulation was found in the same KB tumors by using the ^68Ga-labeled molecule (SUVmean: 0.79 ± 0.10, SUVmax: 1.94 ± 0.40 at 90 min and SUVmean: 0.51 ± 0.09 and SUVmax: 1.23 ± 0.10 at 240 min); however, this difference between the radiotracers was not significant (Figure 4E). […] In contrast, no significant differences were found between the T/M SUV values of the two radiotracers 90 min post injection (Figure 4F).
# (§3) For tumor induction, SCID mice were injected with 5x10^6 KB tumor cells in 0.9% NaCl (100 µL) subcutaneously into the left shoulder area. The tumor growth was assessed by caliper measurements, and tumor size was calculated using the following formula: (largest diameter × smallest diameter^2)/2. In vivo experiments were carried out approximately 13 ± 1 days after […] injection of tumor cells at the tumor volume of approximately 110 mm^3.
# For in vivo imaging studies, healthy control and KB tumor-bearing CB17 SCID mice were injected with 8.42 ± 0.38 MBq of ^68Ga- or ^44Sc-labeled DO3AM-NI via the lateral tail vein 13 ± 1 days after the inoculation of KB tumor cells. Then, 65 and 225 min after radiotracer injection, mice were anaesthetized by 3% isoflurane (Forane) with a dedicated small animal anesthesia device and whole-body T1-weighted MRI scans were performed (3D GRE EXT multi-FOV; TR/TE 15/2 ms; phase: 100; FOV 60 mm; NEX 2) using the preclinical nanoScan PET/MRI system with 1 Tesla magnetic field (Mediso Ltd., Hungary). After MRI imaging, 20 min static whole-body PET scans were acquired (90 min and 4 h after radiotracer injection).
# Quantitative radiotracer uptake was expressed in terms of standardized uptake value (SUV), SUV = [VOI activity (Bq/mL)]/[injected activity (Bq)/animal weight (g)], assuming a density of 1 g/mL. Volumes of interest (VOI) were manually drawn around the edge of the organ or tumor activity using the InterView™ FUSION (Mediso Ltd., Hungary) image analysis software. Tumor-to-muscle (T/M) ratios were computed as the ratio between the activity in the tumor VOI and in the background (muscle) VOI. Skeletal muscles of the right shoulder area were used as background.
# KB tumors [5] = experiment: Ex vivo biodistribution in KB tumor xenografts; set-up: species or system CB17 SCID mice; settings: for KB tumor uptake: 13 ± 1 days after subcutaneous tumor induction, n = 5, mean ± SD
# Experimental: For the assessment of the accumulation in the tumors of [^44Sc]Sc(DO3AM-NI) and [^68Ga]Ga(DO3AM-NI), ex vivo biodistribution studies were performed 90 and 240 min post injection using KB tumor xenografts.
# as §3, §2
# [6] = In vivo PET/MRI imaging of healthy control SCID mice, quantitative SUV analysis; set-up: species or system CB17 SCID mice; settings: 90 and 240 min after tracer injection
# Experimental: The biodistribution of ^44Sc- and ^68Ga-labeled DO3AM-NI was investigated using healthy control and KB tumor-bearing SCID mice. PET/MRI imaging and ex vivo studies were performed 90 and 240 min after intravenous injection of ^44Sc- or ^68Ga-labeled DO3AM-NI. By the qualitative analysis of the PET/MRI images, the kidneys and the bladder with urine were clearly visualized using both radiotracers at each investigated time point; however, in other abdominal and thoracic organs, low uptake was observed.
# For in vivo imaging studies, healthy control and KB tumor-bearing CB17 SCID mice were injected with 8.42 ± 0.38 MBq of ^68Ga- or ^44Sc-labeled DO3AM-NI via the lateral tail vein 13 ± 1 days after the inoculation of KB tumor cells. Then, 65 and 225 min after radiotracer injection, mice were anaesthetized by 3% isoflurane (Forane) with a dedicated small animal anesthesia device and whole-body T1-weighted MRI scans were performed (3D GRE EXT multi-FOV; TR/TE 15/2 ms; phase: 100; FOV 60 mm; NEX 2) using the preclinical nanoScan PET/MRI system with 1 Tesla magnetic field (Mediso Ltd., Hungary). […]
# Quantitative radiotracer uptake was expressed in terms of standardized uptake value (SUV), SUV = [VOI activity (Bq/mL)]/[injected activity (Bq)/animal weight (g)], assuming a density of 1 g/mL. […]
compound,measurement,setting,value
O=C([O-])CN1CCN(CC(=O)[O-])CCN(CC(=O)NCCn2ccnc2[N+](=O)[O-])CCN(CC(=O)[O-])CC1.[68Ga+3] [[^68Ga]Ga(DO3AM-NI)],octanol/water partition coefficient (logP),[1],−3.89
same,RCP after 240 min,[2]; Na2H2EDTA (0.01 M),above 93%
same,RCP after 240 min,[2]; mouse plasma,above 93%
same,RCP after 240 min,[2]; oxalic acid (0.01 M),above 93%
same,Blood uptake,[3]; 90 min after i.v. injection,0.81 ± 0.22 %ID/g
same,Fat uptake,[3]; 90 min after i.v. injection,0.13 ± 0.10 %ID/g
same,Heart uptake,[3]; 90 min after i.v. injection,0.26 ± 0.06 %ID/g
same,Kidney uptake,[3]; 90 min after i.v. injection,1.32 ± 0.47 %ID/g
same,Large intestine uptake,[3]; 90 min after i.v. injection,0.20 ± 0.13 %ID/g
same,Liver uptake,[3]; 90 min after i.v. injection,0.43 ± 0.11 %ID/g
same,Lung uptake,[3]; 90 min after i.v. injection,0.49 ± 0.08 %ID/g
same,Muscle uptake,[3]; 90 min after i.v. injection,0.10 ± 0.03 %ID/g
same,Small intestine uptake,[3]; 90 min after i.v. injection,0.25 ± 0.10 %ID/g
same,Spleen uptake,[3]; 90 min after i.v. injection,0.29 ± 0.14 %ID/g
same,Stomach uptake,[3]; 90 min after i.v. injection,0.21 ± 0.04 %ID/g
same,Urine uptake,[3]; 90 min after i.v. injection,65.94 ± 5.21 %ID/g
same,Blood uptake,[3]; 240 min after i.v. injection,0.65 ± 0.11 %ID/g
same,Fat uptake,[3]; 240 min after i.v. injection,0.12 ± 0.08 %ID/g
same,Heart uptake,[3]; 240 min after i.v. injection,0.22 ± 0.04 %ID/g
same,Kidney uptake,[3]; 240 min after i.v. injection,1.21 ± 0.17 %ID/g
same,Large intestine uptake,[3]; 240 min after i.v. injection,0.15 ± 0.06 %ID/g
same,Liver uptake,[3]; 240 min after i.v. injection,0.37 ± 0.10 %ID/g
same,Lung uptake,[3]; 240 min after i.v. injection,0.46 ± 0.09 %ID/g
same,Muscle uptake,[3]; 240 min after i.v. injection,0.06 ± 0.03 %ID/g
same,Small intestine uptake,[3]; 240 min after i.v. injection,0.14 ± 0.04 %ID/g
same,Spleen uptake,[3]; 240 min after i.v. injection,0.32 ± 0.18 %ID/g
same,Stomach uptake,[3]; 240 min after i.v. injection,0.22 ± 0.06 %ID/g
same,Urine uptake,[3]; 240 min after i.v. injection,17.08 ± 7.97 %ID/g
same,tumor-to-muscle ratio T/M SUVmax,KB tumors [4],41.72 ± 13.61
same,tumor-to-muscle ratio T/M SUVmean,KB tumors [4],85.66 ± 6.06
same,T/M (tumor-to-muscle ratio),KB tumors [5]; 90 min after injection,6.28 ± 1.11
same,KB tumor uptake,KB tumors [5]; 90 min after injection,0.62 ± 0.10 %ID/g
same,T/M (tumor-to-muscle ratio),KB tumors [5]; 240 min after injection,7.51 ± 1.13
same,KB tumor uptake,KB tumors [5]; 240 min after injection,0.46 ± 0.07 %ID/g
same,"uptake (SUV) in liver, spleen, kidney, intestines, lung, heart and brain compared with [^44Sc]Sc(DO3AM-NI)",[6],significantly (p ≤ 0.01) higher
